Measured values: patent US20260085315A1, “POLYNUCLEOTIDE COMPOSITIONS AND METHODS FOR TREATMENT OF CANCER” (APTAH BIO, INC., priority 2023, published 2026)
“And” between values parts separate entries of the source, which are not always exact repeats. Equal values may be shown once. d = 2'-deoxy (DNA); m = 2'-O-methyl

Key:
MCF-7 cell line [1] = assay: MTT cytotoxicity assay on human cancer cell panel (Example 2); format: cell-based; settings: 24, 48, 72, 96 hours; 0.03-30 μM; 0.1% FBS
Method: (§1) Cell lines were maintained in growth medium with 10% of Fetal Bovine Serum (FBS) until the time of the experiments. Cells were sub-cultured by trypsinization and splitting the cell suspension into fresh flasks and supplementing with fresh culture medium. To perform the assay, the cells were trypsinized, neutralized with complete medium (10% FBS), centrifuged, counted with assistance of a hemocytometer, and plated with the respective media with 10% FBS. Cell lines were plated at a density of 1×10^4 cells per well, other than the SH-SY5Y cell line which was plated at a density of 2.5×10^4. The preparation of the different experimental groups was done with 0.1% FBS (U87MG, MCF-7, SH-SY5Y and 786-O) and 1% FBS (PC-3). The untreated cells were used as negative control (medium only). After 24, 48, 72 and 96 hours of incubation, the effect of ASMO1 and controls on cytotoxicity of cells was determined by MTT assay.
(§2) Briefly, plates were taken out and 20 μl of 5 mg/ml of MTT 3-(4,5-dimethythiazol-2-yl)-2,5-diphenyl tetrazolium bromide solution was added to all the wells. Cells were incubated for 3 h at 37° C. After this period, supernatant was aspirated and 100 μl of DMSO was added to each well to dissolve formazan crystals. The absorbance of each well was then read at 540 nm using Synergy HT microplate reader.
(§3) Cells were plated and treated with 7 different concentrations (0.03, 0.1, 0.3, 1, 3, 10 and 30 μM) of APT20TTMG with medium (0.1% FBS). MTT assay was performed in 4 distinct times and graphs are represented as absorbance (540 nm). (A) 24 hours of incubation. (B) 48 hours of incubation. (C) 72 hours of incubation. (D) 96 hours of incubation.

U-87MG cell line = assay: as above; format: cell-based; settings: 0.03-30 μM, 0.1% FBS
Method: as §1, §2, §3

SH-SY5Y cell line = assay: as above; format: cell-based; settings: 0.03-30 μM tested, 0.1% FBS
Method: as §1, with “The preparation of the different experimental groups was done with 0.1% FBS (U87MG, MCF-7, SH-SY5Y and 786-O) and 1% FBS (PC-3). The untreated cells were used as negative control (medium only).” left out
Briefly, plates were taken out and 20 μl of 5 mg/ml of MTT 3-(4,5-dimethythiazol-2-yl)-2,5-diphenyl tetrazolium bromide solution was added to all the wells. […] The absorbance of each well was then read at 540 nm using Synergy HT microplate reader.
As shown in FIG. 13A-D, up to 72 hours ASMO1 APT20TTMG seems to have a cytotoxic effect from the concentration of […]. At 96 hours, the profile is a little different, and the concentration of 0.3 μM seems to start some effect. […] MTT assay was performed in 4 distinct times and graphs are represented as absorbance (540 nm). […]

MCF-7 cell line [2] = assay: MTT cell viability assay (Example 3); format: cell-based, Human; settings: 48 hours, 2% FBS
Method: MTT assay was carried out to assess the cell viability of MCF-7 cell line after treatment with ASMO APT20TTMG, and, therefore, infer the ASMO1 cytotoxicity. The tetrazolium salt reduction (MTT) method evaluates cell viability by assessing mitochondrial integrity. Viable cells are able to reduce MTT reagent, which is yellow and water-soluble, into an insoluble purple formazan product. Formazan quantification could be measured by a spectrophotometer absorbance at 560 nm. The quantity of formazan is directly proportional to the number of viable cells in the culture.
For this assay, MCF-7 cells were plated in 96-well plates at a density of 1×10^4 cells/well and cultured for 24 hours for adhesion and, subsequently incubated with eight concentrations (0.0078-1 μM) of APT20TTMG (prepared in medium with 2% FBS) for the period of 48 hours. Then, cells were washed with 150 μL/well of PBS and incubated with 100 μL/well of MTT solution prepared in culture medium, at a concentration of 0.5 mg/mL for 3 hours in the incubator. […] Finally, the absorbance of the samples was measured in a plate reader spectrophotometer (Multiskan Spectrum, Thermo Scientific, Waltham, MA, USA), at a wavelength of 560 nm. The absorbance of each sample was used to determine the cell viability after each treatment condition.

[3] = tested on: neuroblastoma cell line (SK-N-SH); assay: Cell viability over time; format: cell-based; settings: 0.5 μM; 24, 48, 96, 144 hours; indicating a cytostatic effect
Method: FIG. 26 illustrates cell viability results obtained after 24, 48, 96 and 144 hours of incubation with ASMO1 (0.5 μM) in neuroblastoma cell line (SK-N-SH).

Ki67 = Ki67 immunohistochemistry of tumor samples; format: in vivo, athymic nude mice; settings: treated groups vs non-treated control
Method: Immunohistochemistry analysis of Ki67 in tumor samples was also performed. Quantification of the Ki67 in the sections was carried out by visual estimation (Ki67+ve) using two approaches: count of Ki-67 positive tumor cells and Ki67 total area. This process was done using ImageJ public domain software. In the case of the Ki67 total area evaluation, the ImageJ threshold function was used and each image was split into its constituent red, blue and green grayscale images. Further, one of these was selected and processed for threshold values. Values were selected so that the relevant areas (Ki67+ve cells, in this case) were highlighted and the % of area occupied by the selected threshold limits measured.
As shown in FIG. 35A-B, graphs present the individual values of protein quantification of tumors from 8 animals. (A) Ki-67 area, (B) Ki-67 positive tumor cells count.

[4] = tested on: Human Glioblastoma Cancer (U-87MG) xenograft; assay: Histopathology of tumor samples with scoring; format: in vivo, athymic nude mice; set-up: key: 4: Minimal; 3: Mild; 2: Moderate; 1: Prominent; settings: individual animals; G3 APT20TTMG, G2 TMZ
Source text: (§4) The fixed tissues were processed for routine paraffin embedding followed by sectioning (3-6 micron). The sections were stained with hematoxylin and eosin. The prepared slides were examined under microscope by the study pathologist to record histopathological findings in tumor samples, related to capsule formation, cell type, connective tissue stroma, apoptosis, necrosis, lipid content, nucleus-to-cytoplasmic (N:C) ratio, nuclei mitotic figures, tumor grade, and level of differentiation. Each histopathological finding and tumor volume were assigned a score ranging from 1 to 4 (Table 7). The sum of these scores for each sample was used to infer the tumor aggressiveness.

[5] = tested on: Human Glioblastoma Cancer (U-87MG) xenograft; assay: Histopathology of tumor samples with scoring; format: in vivo, athymic nude mice; set-up: key: 1: Minimal Fibrosis; 2: Mild Fibrosis; 3: Moderate Fibrosis; 4: Prominent; settings: individual animals; G3 APT20TTMG, G2 TMZ
Source text: as §4

## APT20TTMG: engineered polynucleotide ASMO1, 24 nt, SEQ ID NO: 3 gtccactaacctttcaggccagcg; targeting moieties 5′-GTCCA-3′ and 5′-CG-3′, U1 snRNP recruiting moiety (GTCCACTAACCTTTCAGGCCAGCG; sugars from the 5' end m5 d14 m5, all phosphorothioate, methylation of C and T or U not given here)
MCF-7 cell line [1]
  cytotoxic or cytostatic effect (MTT): does not exert a cytotoxic or cytostatic effect
U-87MG cell line; 72 and 96 hours
  cell viability (MTT, absorbance 540 nm): like those of the vehicle group
U-87MG cell line; 24 hours, vs negative control and vehicle
  cell viability (MTT, absorbance 540 nm): trend of reduction in cell viability
U-87MG cell line; 48 hours
  cell viability (MTT, absorbance 540 nm): reduction in absorbance values
SH-SY5Y cell line; 96 hours
  concentration that starts some effect (MTT): ≥ 0.3 µM
SH-SY5Y cell line; up to 72 hours
  concentration from which a cytotoxic effect is seen (MTT): ≥ 1 p M
MCF-7 cell line [2]; 0.5 μM
  cell viability (MTT): 86.4±1.6%
MCF-7 cell line [2]; 1 μM
  cell viability (MTT): 85±2.7%
[3]
  number of viable cells: remains practically the same
Ki67
  Ki67 (positive tumor cell count and total area): did not detect any statistical differences
[4]
  Score: Mitotic figures: 2
  Score: Necrosis: 3 and 2
[5]
  Score: Necrosis: 4
